{"source": "patent US10975126B1", "about": "(priority 2020, dated 2021)", "tested_on": "MERS-CoV", "type": "cell-based, MERS-CoV (CoV/KOR/KNIH/002_05_2015) in Vero cells", "note": "No end group written: not given here.", "data": [{"sequence": "SLTQINWTLLDLTYEMESLQQVVKALNEYYIDLKEL [Peptide 5]", "values": [{"measurement": "inhibition of MERS-CoV / decrease in plaque formation (in words)", "result": "strong inhibition"}]}]}
